# Article PMC11339918, “Extracellular Domain of IL-10 Receptor Chain-2 (IL-10R2) and Its Arginine-Containing Peptides Are Susceptible Substrates for Human Prostate Kallikrein-2 (KLK2)” (Biochemistry, 2024)
# System: BMDM cells
# Assay: BMDM activation with LPS/IFN-γ: NO, TNF-α and IL-12 p40 in supernatant
# Assay type: cell-based, C57Bl/6 mice
# Settings: 72 h, Griess, ELISA; for IL-10 inhibition of NO, TNF-α and IL-12 p40 generation in pretreated BMDM: pretreatment 7.5 μg/mL for 2 h, then LPS 200 ng/mL / IFN-γ 100 U/mL ± IL-10 10 ng/mL
# Experimental: BMDM were obtained from C57Bl/6 mice and used as previously reported.[17]
# For BMDM activation assays in vitro, cells were plated at a density of 10^5 cells/mL in 96-well plates at 37 °C in the absence and presence of KLK2 or KLK3 (7.5 μg/mL) for 2 h. The cells were then washed with PBS and treated with LPS (200 ng/mL)/IFN-γ (100 U/mL) stimuli in the presence or absence of recombinant IL-10 (10 ng/mL). The activation response of BMDM cells was evaluated after 72 h by quantification of nitric oxide (NO), TNF-α, and IL-12 p40 in the supernatant of BMDM cell cultures. NO was quantified using the Griess assay,[19] and the cytokines TNF-α and IL-12 p40 were quantified using sandwich enzyme-linked immunosorbent assay (ELISA) kits (B.D. Biosciences) following the manufacturer’s instructions.
# Figure 3 KLK2 converts BMDM cells to a pro-inflammatory status characterized by maintaining NO, TNF-α, and IL-12p40 levels, even in the presence of recombinant IL-10. BMDM cells from C57Bl/6 mice were incubated in a 96-well plate (1 × 10^5 cells) with KLK2 (7.5 μg/mL) or KLK3 (7.5 μg/mL) for 2 h. After this, cells were washed and incubated with or without lipopolysaccharide (LPS) (200 ng/mL), IFN-γ (IFN), and recombinant IL-10 (IL10). (A) NO quantified in the culture supernatant by the Griess method. (B) TNF-α and (C) IL-12 p40 cytokines were quantified by ELISA in culture supernatants. MΦ = control macrophages. * p-value <0.001, analyzed by ANOVA with Tukey’s multiple comparisons.
Molecule,"IL-10 inhibition of NO, TNF-α and IL-12 p40 generation in pretreated BMDM","generation of NO, TNF-α and IL-12 p40 in LPS/IFN-γ activated BMDM (IL-10 10 ng/mL, LPS 200 ng/mL / IFN-γ 100 U/mL)"
KLK3: human kallikrein-related peptidase 3 (PSA—prostatic-specific antigen),did not show these effects,–
"KLK2: human prostate kallikrein-2, recombinant, from a baculovirus-insect cell line system",these IL-10 inhibitory effects were not observed,–
"recombinant IL-10: recombinant IL-10 (10 ng/mL) used in BMDM activation assay (protein, UniProt P18893 19-178, looked up) Interleukin-10: SRGQYSREDNNCTHFPVGQSHMLLELRTAFSQVKTFFQTKDQLDNILLTDSLMQDFKGYLGCQALSEMIQFYLVEVMPQAEKHGPEIKEHLNSLGEKLKTLRMRLRRCHRFLPCENKSKAVEQVKSDFNKLQDQGVYKAMNEFDIFINCIEAYMMIKMKS",–,"reduced the generation of NO, TNF-α, and IL-12 p40"
